Key:
[1] = biological target: T1, LSD1 (Mus musculus, UniProt Q6ZQ88); assay: Cardiac LSD1 activity in explanted hearts at end of treatment (Epigentec kit); type: in vivo, mice; details: 1.5 mg / Kg intragastric gavage from 10 days after experimental infarction for three weeks, Figure 1
T1 construct: from tissue; host or cells: explanted hearts of C57BL/6 mice
Description: The LSD1 inhibitor (1.5 mg / Kg) was administered by intragastric gavage 10 days after experimental infarction and for three weeks. Losartan (5mg/kg) was also administered by oral gavage one week after experimental infarction and for three weeks,
The severity of the infarction was assessed by echocardiography 10 days after surgery. LSD1 activity was measured at the end of treatment (Epigentec kit) in explanted hearts. […] The ventricular wall has thickened when compared to the group treated with losartan Student -t-test ** p≤ 0.001 (Figure 2 B). Left ventricular function has improved. • 2- Ischemia -reperfusion model : transient ligation of descending anterior left coronary (30 min); followed by reperfusion

[2] = tested on: C57BL/6 adult mice; assay: Permanent infarction model (permanent ligation of descending anterior left coronary, no reperfusion); type: in vivo
Description: (§1) Both groups were subjected to experimental infarction. A control group received no treatment. Two myocardial infraction models were used, respectively a permanent infarction model and an ischemia -reperfusion model. The LSD1 inhibitor (1.5 mg / Kg) was administered by intragastric gavage 10 days after experimental infarction and for three weeks. Losartan (5mg/kg) was also administered by oral gavage one week after experimental infarction and for three weeks, • 1: experimental infarctus : • 2.: 10 days later: control echo : pretreatment echo: • 3: posttreatment echo one month later The severity of the infarction was assessed by echocardiography 10 days after surgery. LSD1 activity was measured at the end of treatment ([…] kit) in explanted hearts. […] The ventricular wall has thickened when compared to the group treated with losartan Student -t-test ** p≤ 0.001 (Figure 2 B). Left ventricular function has improved. • 2- Ischemia -reperfusion model : transient ligation of descending anterior left coronary (30 min); followed by reperfusion

[3] = tested on: C57BL/6 adult mice; assay: Ischemia-reperfusion model (transient ligation of descending anterior left coronary 30 min, then reperfusion); type: in vivo
Description: as §1, with “by reperfusion The results were similar in the ischemia / reperfusion model. […] Student -t-test **p≤ 0.001 The shortening fraction (SF) is an index of contractile activity : the contraction of the walls of ventricle is responsible of the shortening of the distance between each wall. This is calculated by dividing the distance between the walls at diastole minus the distance between the walls at systole by the distance between the walls at diastole (in %) Shortening fraction x Volume of chamber = ejection fraction (% of the chamber volume emptied at each contraction)” for “by reperfusion”

## Cl.Cl.c1ccc([C@@H]2C[C@H]2NC2CCNCC2)cc1 [GSK-LSD1, N-[(1R,2S)-2-phenylcyclopropyl]piperidin-4-amine dihydrochloride]
[1]
  cardiac LSD1 activity: significantly reduced
[2]; 1.5 mg / Kg gavage, three weeks
  Left ventricular function: has improved
[2]; 1.5 mg / Kg gavage, three weeks, compared to the group treated with losartan, p≤ 0.001, Figure 2 B
  left ventricular wall thickness: has thickened
[2]; 1.5 mg / Kg intragastric gavage from 10 days after infarction for three weeks, compared to Losartan (5mg/kg), Figure 2 A
  myocardial fibrosis area (left ventricle : LV): significantly reduced fibrosis
[3]; ischemia / reperfusion, 1.5 mg / Kg gavage, three weeks, compared with the non treated group, p≤ 0.001, Figure 3 A
  myocardial fibrosis area (LV): prevented fibrosis
[3]; ischemia / reperfusion, M-mode echocardiography, compared to non-treated group and pretreatment, p≤ 0.001, Figure 3 B
  Left ventricular function: fully restored left ventricular function
[3]; post administration, normal SF in healthy mice 60%, post infarct 20%
  shortening fraction (SF): 60%

Reference: patent EP3964204A1, “LSD1 INHIBITORS FOR USE IN THE TREATMENT AND PREVENTION OF FIBROSIS OF TISSUES” (Université d'Aix-Marseille, priority 2020, dated 2022)
